# Test results: patent US10577349B2 (Sanford Burnham Prebys Medical Discovery Institute, priority 2015, dated 2020)
# What was measured:
# [1] = system: WM1346 (NRAS mutant) cell line; assay: Reverse phase protein array analysis (RPPA), WM1346; type: cell-based, human; conditions: WM1346, 1 μM, 24 h
# Procedure: UACC903 and WM1346 cells were treated with DMSO (controls) or 1 μM Compound 38 for 24 h in triplicate. Cells were lysed with lysis buffer (1% Triton X-100, 50 mM HEPES, pH 7.4, 150 mM NaCl, 1.5 mM MgCl2, 1 mM EGTA, 100 mM NaF, 10 mM Na pyrophosphate, 1 mM Na3VO4, 10% glycerol, with freshly added protease and phosphatase inhibitors) and centrifuged at 13,000 g for 20 minutes. Denatured protein lysates containing the same amount of protein were then subjected to RPPA analysis at the RPPA Core Facility, Md. Anderson Cancer Center, as previously described (Tibes. R., et al. Reverse phase protein array: validation of a novel proteomic technology and utility for analysis of primary leukemia specimens and hematopoietic stem cells. Molecular cancer therapeutics 5, 2512-2521 (2006)),
# A reverse phase protein array (RPPA) analysis of BRAF- and NRAS-mutant melanomas was performed to identify protein networks affected by Compound 38 (Table 4).
# eIF4F complex = target: T1, eIF4F complex (Homo sapiens, UniProt Q04637); assay: m7GTP pull-down assay, UACC903 melanoma cells; type: cell-based
# T1 construct: PLX4032), or Compound 38; endogenous in cells; host or cells: A375, A375R, Lu1205R, WM793R melanoma cells
# Procedure: As previously described (Dowling R J, et al. mTORC1-mediated cell proliferation, but not cell growth, controlled by the 4E-BPs. Science. 2010; 328:1172-6), cells growing in 100 mm plates were washed (cold PBS), collected, and lysed in 50 mM MOPS/KOH (7.4), 100 mM NaCl, 50 mM NaF, 2 mM EDTA, 2 mM EGTA, 1% NP40, 1% Na-DOC, 7 mM β-mercaptoethanol, protease inhibitors and phosphatase inhibitor cocktail (Roche). Lysates were incubated with m7-GDP-agarose beads (Jena Bioscience) for 20 minutes, washed 4 times with the washing buffer containing 50 mM MOPS/KOH (7.4), 100 mM NaCl, 50 mM NaF, 0.5 mM EDTA, 0.5 mM EGTA, 7 mM (3-mercaptoethanol, 0.5 mM PMSF, 1 mM Na3VO4 and 0.1 mM GTP, and bound proteins were eluted by boiling the beads in loading buffer. m7-GDP-agarose pulled down material was analyzed by Western blot analysis.
# The dissociation of eIF4G1 from the eIF4F complex was determined using m^7GTP-agarose pull-down, which captures the eIF4F complex. […] Proteins prepared from UACC903 melanoma cells were treated with indicated Compound 38 concentrations and incubated with m^7GTP-agarose beads to capture the eIF4F complex. Shown is dose-dependent inhibition of eIF4G1 binding to eIF4E, concomitant with increased binding of inhibitory 4E-BP1 to eIF4E. Bottom, the total cell lysate.
# A375 tumors = assay: A375 xenograft in nude mice; type: in vivo
# Procedure: All animal studies were conducted in the SBMRI Animal Facility in accordance with the Institutional Animal Care and Use Committee guidelines. Six-week-old female nu/nu mice were purchased Harlan Laboratories (Indianapolis, Ind.) and allowed to acclimatize for 1 week. A375 cells (1×10^6, suspended in 200 μL sterile PBS) were injected into subcutaneous flank tissue. When the xenograft size reached ˜250 mm^3, mice were sorted into different groups. For PLX4720 and Compound 38 combination experiments, mice were either fed PLX4720-containing chow alone (AIN76A Roden Diet with 417 mg PLX4720/kg from Open Source Diets) for the control group or PLX4 720-containing chow plus an IP injection of 1 mg/kg Compound 38 twice a week. For MEKi plus Compound 38 experiments, PD0325901 at 20 mg/kg (formulated in 0.5% hydroxypropyl methylcellulose plus 0.2% Tween-80) was administered by oral gavage twice a week (Monday and Thursday) for the control group, or PD035901 plus IP injection of 1 mg/kg Compound 38 was administered twice a week (Tuesday and Friday). Mice were maintained in a pathogen-free environment with free access to food. Body weight and tumor volume were measured twice a week. Tumor size was measured with linear calipers and calculated using the formula: ([length in millimeters×(width in millimeters)2]/2). Mice were sacrificed after 4 weeks and tumors were fixed in Z-Fix (Anatech, Battle Creek, Mich.) and embedded in paraffin for immunohistochemistry.
# A375 human melanomacells were injected subcutaneously (1×10^6) into the flank of nude mice and allowed to form established tumors. Once tumors reached approximately 250 mm3, mice were randomly grouped and subjected to the indicated treatments [chow containing PLX4720 (417 mg/kg) and/or Compound 38 (1 mg/kg, 2 times per week intraperitoneally)]. Tumor size was measured at the indicated time points. The experiment was repeated twice. […] When tumors were allowed to reach 500 mm^3 before initiating treatment, 5 of 7 […] mice subjected to BRAFi treatment alone relapsed as drug-resistant tumors (4/5 within 4-6 weeks), whereas only 3 of 6 (50%) subjected to combination treatment developed resistance, albeit more slowly (2/3 after 8 weeks; FIG. 22). […] Proteins prepared at the indicated times from A375 tumors that were subjected in vivo to treatment with Compound 38 were incubated with m^7GTP-beads to capture the eIF4F complex. Shown is time-dependent inhibition of eIF4G1 binding to eIF4E in vivo, concomitant with increased binding of inhibitory 4E-BP1 to eIF4E.
smiles,measurement,setting,value
"O=C(/C=C/c1cncc(F)c1)c1c(-c2ccccc2)c2cc(Cl)ccc2[nH]c1=O [Compound 38, 6-Chloro-3-[3-(5-fluoro-pyridin-3-yl)-acryloyl]-4-phenyl-1H-quinolin-2-one]",Ratio [Compound 38/DMSO] A-Raf,[1],0.90
same,Ratio [Compound 38/DMSO] AR,[1],0.72
same,Ratio [Compound 38/DMSO] ATM,[1],0.82
same,Ratio [Compound 38/DMSO] ATR,[1],0.76
same,Ratio [Compound 38/DMSO] BRCA2,[1],0.90
same,Ratio [Compound 38/DMSO] C-Raf,[1],0.93
same,Ratio [Compound 38/DMSO] Chk1,[1],0.94
same,Ratio [Compound 38/DMSO] Ets-1,[1],0.91
same,Ratio [Compound 38/DMSO] GCN5L2,[1],0.86
same,Ratio [Compound 38/DMSO] INPP4b,[1],0.88
same,Ratio [Compound 38/DMSO] MSH6,[1],0.78
same,Ratio [Compound 38/DMSO] PI3K-p85,[1],0.96
same,Ratio [Compound 38/DMSO] PI3K-p110-alpha,[1],0.95
same,Ratio [Compound 38/DMSO] Rad51,[1],0.78
same,Ratio [Compound 38/DMSO] Raptor,[1],0.87
same,Ratio [Compound 38/DMSO] Rictor_pT1135,[1],0.91
same,Ratio [Compound 38/DMSO] S6_pS235_S236,[1],0.70
same,Ratio [Compound 38/DMSO] S6_pS240_S244,[1],0.65
same,Ratio [Compound 38/DMSO] Stat5a,[1],0.67
same,Ratio [Compound 38/DMSO] Tuberin,[1],0.68
same,Ratio [Compound 38/DMSO] YB1,[1],0.69
same,Ratio [Compound 38/DMSO] c-Kit,[1],0.94
same,Ratio [Compound 38/DMSO] c-Myc,[1],0.80
same,Ratio [Compound 38/DMSO] mTOR,[1],0.71
same,Ratio [Compound 38/DMSO] mTOR_pS2448,[1],0.76
same,Ratio [Compound 38/DMSO] p70-S6K_pT389,[1],0.81
same,dissociation of eIF4G1 from the eIF4F complex (m7GTP-agarose pull-down),eIF4F complex,dissociated eIF4G1 from the eIF4E in a dose-dependent manner
same,effect on the eIF4F complex in vivo (m7GTP-beads),"A375 tumors; A375 tumors, treatment with both BRAFi and Compound 38, up to 8 hours",time-dependent disruption of the eIF4F complex
same,"Growth of established tumors (~250 mm^3), combination of BRAFi plus Compound 38","A375 tumors; PLX4720 chow plus Compound 38 1 mg/kg, 2 times per week intraperitoneally",largely inhibited
same,Tumors seen in mice treated with the drug combination,"A375 tumors; treatment started at ~250 mm^3, PLX4720 chow plus Compound 38 1 mg/kg IP",0/4
